According to patent publication US6040291A, “Antimicrobial peptide” (Seikagaku Corporation, priority 1998, dated 2000):

Test system: E. coli O157:H7
Assay: Antimicrobial activity on E. coli O157:H7 (CFU count, IC50)
Assay type: cell-based
Conditions: Table 6
Protocol: Measurement method for antimicrobial activity: For the measurement of antimicrobial activity, E. coli [E. coli O157:H7 (collected from an E. coli O157 patients in Okayama prefecture, Kanagawa prefecture and Morioka city of Iwate Prefecture)], Klebsiella or Methicillin resistant Staphylococcus aureus; MRSA] was used.
These bacteria were grown in a liquid medium (Tryptosoy broth; manufactured by Eiken Kagaku). The bacteria cells in a logarithmic growth phase were collected, washed with PBS (pH 7.2), and adjusted to a final concentration of 5 ×10^3 to 1×10^4 cells/ml. To 450 μl of cell suspension, 50 μl of samples (peptide) in various concentrations were each added and mixtures were incubated at 37° C. for 1 hour. After the incubation, 100 μl of each reaction mixture was spread on an agarose medium (Nutrient agar; manufactured by Eiken Kagaku). This was incubated at 37° C. for 24 hours and the colony-forming unit (CFU) was counted to obtain 50% inhibition concentration (IC50).
Polymyxin B (known antimicrobial agent), A1, the peptide of the present invention (b), A3, the peptide of the present invention (d), A5 and A6 were used as samples and their antimicrobial activities on E. coli [E. coli O157:H7 (collected from E. coli O157 patients in Okayama prefecture, Kanagawa prefecture and Morioka city of Iwate Prefecture)] were examined by the above-described measurement method. […]

## Polymyxin B
Isolate Kanagawa
  Antimicrobial Activity on E. Coli O157:H7 (IC50): < 2.5 µg/mL
Isolate Okayama
  Antimicrobial Activity on E. Coli O157:H7 (IC50): 0.2 µg/mL
